# Results taken from patent US20060228313A1, “Method of cosmetic depigmentation care by applying at least one aurone” (Coletica, priority 2005, published 2006).
# Experiments:
# guinea pig = experiment: Skin sensitisation potential in the guinea pig, Magnusson and Kligmann maximization test (OECD 406); format: in vivo; conditions: compound at 10% in a 0.5% xanthan gum
# Experimental: (§1) Toxicology tests were carried out on the compound obtained according to Example 9 incorporated at 10% in a 0.5% xanthan gum, by an ocular evaluation in the rabbit, by the study of the absence of abnormal toxicity by single oral administration in the rat and by the study of the sensitizing power in the guinea pig.
# The preparations described are subjected to the maximization test described by Magnusson and Kligmann, a protocol which is in agreement with the directive line No. 406 of the OECD.
# eye of rabbits = experiment: Evaluation of the ocular irritation in the rabbit (OECD 405); format: in vivo; conditions: compound at 10% in a 0.5% xanthan gum, instilled pure, 0.1 ml
# Experimental: as §1
# The preparations described above were instilled pure and in one batch at the rate of 0.1 ml in the eye of three rabbits according to the method recommended by the directive of the OECD NO. 405 of Feb. 24, 1987, in relation to the study of “the acute irritant/corrosive effect on the eyes”.
# in vivo = conditions: both sexes, rat, po
# Experimental: as §1
# (§2) The preparations described were administered in one batch orally at the dose of 5 g/Kg of body weight, to 5 male rats and 5 female rats according to a protocol inspired from the Directive of the OECD No. 401 of Feb. 24, 1987 and adapted to cosmetic products. The LD0 and LD50 are found to be greater than 5,000 mg/Kg. The preparations tested are therefore not classed amongst the preparations which are dangerous by ingestion.
# rat = experiment: in vivo; conditions: both, po
# Experimental: as §1, §2
# Human tyrosinase = target: T1, Human tyrosinase (Homo sapiens, UniProt P14679); experiment: Inhibition of human tyrosinase in a monolayer after application of the actives on normal human melanocytes; format: cell-based
# T1 construct: Normal human melanocytes (originating from abdominal plasty) are sown in a 24-well plate; endogenous in cells; host or cells: normal human melanocytes (abdominal plasty; donors of light, brown and black phototype)
# T1 sequence (P14679 19-529): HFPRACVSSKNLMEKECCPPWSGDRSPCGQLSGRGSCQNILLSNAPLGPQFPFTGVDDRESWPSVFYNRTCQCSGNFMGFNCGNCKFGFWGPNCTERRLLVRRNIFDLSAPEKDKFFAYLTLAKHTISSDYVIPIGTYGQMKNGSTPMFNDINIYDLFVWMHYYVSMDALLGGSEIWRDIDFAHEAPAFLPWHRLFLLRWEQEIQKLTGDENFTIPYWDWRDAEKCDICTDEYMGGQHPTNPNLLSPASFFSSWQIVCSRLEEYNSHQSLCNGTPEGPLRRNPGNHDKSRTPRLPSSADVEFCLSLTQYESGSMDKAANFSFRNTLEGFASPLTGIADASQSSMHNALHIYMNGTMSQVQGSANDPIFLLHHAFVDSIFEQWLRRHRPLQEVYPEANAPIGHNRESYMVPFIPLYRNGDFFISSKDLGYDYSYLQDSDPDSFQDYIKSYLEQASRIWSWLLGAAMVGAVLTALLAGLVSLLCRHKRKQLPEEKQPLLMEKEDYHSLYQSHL
# Experimental: Normal human melanocytes (originating from abdominal plasty) are sown in a 24-well plate at the rate of 80,000 cells per well. They are cultivated up to confluence and the actives are applied for 24 hours in the culture media. After 24 hours, the media are removed and the melanocytes are picked up by mechanical action. An extraction is made by heat shock and the supernatants are then recovered and then incubated with MBTH (Sigma) and L-Dopa (Sigma). The OD at 490 nm is measured after 30 minutes, and the inhibition is of the tyrosinase is calculated by comparing the OD at 490 nm to the protein level (measured in each culture well) of the test with respect to the ratio: OD 490 nm/concentration of protein of the negative control (non-treated control). […]
# normal human melanocytes = test system: normal human melanocytes
# From the text: A study is made with molecules known in the literature for their depigmenting activity. These molecules are applied to the model described in Example 15 so as to compare their efficiency with respect to the aurones is described above.
Compound,Skin sensitisation potential (guinea pig),Ocular irritation (eye of rabbits),LD50 (in vivo) [mg/kg],LD0 (rat),Inhibition (%) of tyrosinase (Human tyrosinase; tested at 0.03%) [%],Inhibition (%) of tyrosinase (Human tyrosinase; tested at 0.3%) [%],Inhibition (%) of tyrosinase (Human tyrosinase; tested at 3%) [%],cytotoxicity (normal human melanocytes)
"COc1ccc(/C=C2\Oc3cc(O)cc(O)c3C2=O)cc1 [Example 9, (Z)-4,6-Dihydroxy-2-(4-methoxybenzylidene)benzofuran-3(2H)-one]",non-sensitizing by contact with the skin,non-irritant for the eyes,> 5000,"greater than 5,000 mg/Kg",–,–,–,–
"O=C1O[C@H]([C@@H](O)CO)C(O)=C1OP(=O)(O)O [VitC PMG, reference compound]",–,–,–,–,2.93,1.55,−3.49,no
